From patent US12416018B2, “Regulation of gene expression by aptamer-mediated modulation of alternative splicing” (MEIRAGTX GENE REGULATION LIMITED, priority 2015, dated 2025)
Entries after “also recorded” stand apart in the source; their conditions may differ. Like-named read-outs stand apart in the source and are kept apart here.

Experiments:
[1] = tested on: luciferase gene with two copies of the xpt-G15 containing regulatory cassette (xpt-G15 double); assay: Live animal bioluminescence imaging after hydrodynamic DNA delivery to mouse liver; assay type: in vivo, mice
Experimental: Hydrodynamic DNA delivery and drug treatment: 5 μg or 10 μg of endotoxin-free plasmid DNA containing the luciferase gene with two copies of the xpt-G15 containing regulatory cassette (xpt-G15 double, SEQ ID NO.: 64; Example 8, FIG. 8a), diluted in saline (Qiagen Endofree kit) was injected through tail vein in a volume of 10% body weight over 5 to 10 seconds to 6-7 weeks old CD-1 female mice. Guanosine (Sigma) was suspended in 0.5% methylcellulose/0.25% Tween 80 (Sigma) in water freshly and administrated orally at 2 hr and 12 hr post DNA injection, or, delivered through intraperitoneal injection (IP) at 5 hr, 12 hr, 16 hr and 24 hr post DNA delivery.
Noninvasive live animal bioluminescence imaging: before imaging, mice were anesthesized with 2% isoflurane, and injected with […] body weight of luciferin, and images were taken within 2 to 5 minutes after luciferin injection using Bruker Xtreme system at the indicated time point post DNA injection. Luciferase activity was expressed as mean photon/sec±s.d. The induction fold was calculated as the quotient of photon/sec obtained in mice treated with guanosine divided by value obtained in mice without guanosine treatment.

[2] = tested on: luciferase expression in HEK 293 cells; assay type: cell-based; conditions: for luciferase expression with / without theophylline (in words): HEK 293 cells
Text: A DHFR-acceptor vector was constructed to facilitate the cloning of an aptamer sequence attached to the hairpin stems with different length. The theophylline aptamer sequence used was: ggcgatac[…]gcagegtc (SEQ ID NO:9). Theophylline aptamer oligonucleotides (“oligos”) with 4 nucleotide overhang at 5′ end were synthesized (IDT), annealed and ligated to BsaI-digested DHFR-acceptor vector. HEK 293 cells were transfected with the luciferase reporter constructs with the regulation cassette containing the theophylline aptamer, as described in Example 1. Four hours after transfection, the media was aspirated, and new media with or without 3 mM theophylline was added, and luciferase was assayed 20 to 24 hours after theophylline treatment. The fold induction was expressed as the quotient of luciferase activity obtained in the presence of aptamer ligand divided by the value obtained in the absence of the aptamer ligand.

xpt-G15 double cassette = assay: Guanine dose response of luciferase expression, xpt-G15 double; assay type: cell-based
Experimental: (§1) Constructs were made using Golden Gate cloning strategy (NEB). […] Luciferase activity was assayed as described in Example 5.

[3] = tested on: xpt-G17 containing cassette; assay: Guanine dose response of luciferase expression, single xpt-G17 cassette; assay type: cell-based; conditions: single copy xpt-G17 cassette
Experimental: as §1

[4] = tested on: luciferase expression in HEK 293 cells; assay type: cell-based; conditions: for regulation of luciferase expression by guanine (in words): with or without 500 μM guanine
Experimental: (§2) Xpt-guanine aptamer with the following sequence: cactcatataat[…]cgact atgggtg (SEQ ID NO.: 10), was used to construct a riboswitch. Oligos containing the sequence of guanine aptamer and hairpin stem with 4 nucleotide 5′ overhang were synthesized (IDT), annealed and then ligated to BsaI-digested DHFR-acceptor vector. HEK 293 cells were transfected as described in Example 1. Four hours after transfection, the media was aspirated, and new media with or without 500 μM guanine was added. Luciferase expression was assayed 20 to 24 hrs after guanine treatment as described in Example 1 and Example 4. HepG2, AML12, RD and C2C12 (ATCC) were cultured using the protocol recommended by ATCC. The intron-exon-intron cassette containing the xpt-G17 riboswitch (SEQ ID NO.: 15) was inserted in the leader peptide sequences of the anti-KDR antibody gene and into the Stul site in mouse erythropoietin gene using Gibson cloning strategy (NEB). Constructs containing mouse erythropoietin (Epo) or anti-KDR antibody were transfected into HEK 293 cells. Four hour after transfection, the media was aspirated, and new media with or without 500 μM guanine was added. Supernatants were subjected to ELISA assay for the production of either anti-KDR antibody or the production of mouse Epo (R&D Systems).
as §1
The Con1 construct was used as a template for PCR amplification of intron fragments that have either upstream or downstream intron deletions. To generate constructs that have single intron deletions, PCR products were cloned into the constructs containing the xpt-G17 riboswitch using Golden Gate cloning strategy (NEB). To generate constructs with both upstream and downstream intron deletions, fragments released by EcoRI and BamHI from constructs with single deletions in the downstream intron sequence were cloned into EcoRI and BamHI-digested constructs with single deletions in the upstream intron sequence.
Sequences of mutant human Wilms tumor 1 exon 5 (mutWT1-e5, SEQ ID NO.: 61), SIRT1 exon 6 (SIRT1-e6, SEQ ID NO.: 62), mouse calcium/calmodulin-dependent protein kinase II delta exon 16, or 17 (Camk2d-e16 or e17, SEQ ID NOs.: 59, 60), and synthetic exon ENEEE (SEQ ID NO.: 63) were synthesized (IDT) and cloned into the DHFR-G17 vector in place of the DHFR exon using Gibson Cloning kit (NEB). Plasmid DNA was transfected into HEK 293 cells, treated with 500 μM guanine, and luciferase assay performed as described in Example 1. The sequences of each exon with 5′ and 3′ splice sites are shown with exonic sequences in uppercase letters (Table 5, SEQ ID NOS.: 59 to 63).

[5] = tested on: luciferase expression in HepG2 cells; assay type: cell-based
Experimental: as §2

[6] = tested on: anti-KDR antibody production in HEK 293 cells; assay type: cell-based; conditions: 500 μM guanine
Experimental: as §2

[7] = tested on: EGFP expression in HEK 293 cells; assay: Flow cytometry / imaging of EGFP with regulatory cassettes in HEK 293 cells; assay type: cell-based; conditions: stably transfected HEK 293, 500 μM guanine
Experimental: The intron-mtDHFR-aptamer-intron cassette was PCR amplified and cloned using Golden Gate cloning strategy (NEB) into pEGFP-C1 vector. To obtain a cell line stably expressing EGFP with riboswitch, HEK-293 cells were electroporated with 20 ng of plasmid DNA. Forty eight hours after electroporation, cell culture was selected with 800 μg/ml G418 for 2 weeks for cells that stably express the cassette. Cells were trypsinized and cell suspension was subjected to flow cytometric analysis of intensity of GFP fluorescence using a Guava EasyCyte 8HT machine. The resulting data was analyzed using GuavaSoft2.2.2.
as §1

Molecule: Nc1nc2c(ncn2[C@@H]2O[C@H](CO)[C@@H](O)[C@H]2O)c(=O)[nH]1 [guanosine]
- fold induction at 100 mg/kg ([1]; Mus musculus, ip, 100 mg/kg guanosine intraperitoneally, 11 hours post DNA injection, read-out: fold induction of luciferase compared to uninduced baseline): 4.7
- fold induction at 300 mg/kg ([1]; Mus musculus, ip, 300 mg/kg guanosine intraperitoneally, 11 hours post DNA injection, read-out: fold induction of luciferase compared to uninduced baseline): 16.2
- luciferase expression in liver after oral guanosine (in words) ([1]; oral dosing 2 hr and 12 hr after DNA delivery): higher luciferase expression at 9 hours post DNA; also recorded: dose related activation of expression of the regulated target gene in the liver of the mice
- time of highest luciferase expression post DNA injection ([1]; oral guanosine): 48 h

Molecule: DHFR_Theo14: theophylline aptamer cassette, 7 bp stem (chain 1 TTCAGTAGAAGGTAATGTA; chain 2 GACATTACGCACCAT; expressed or natural sequence)
- luciferase expression with / without theophylline (in words) [2]: no luciferase expression either with or without theophylline

Molecule: Nc1nc2nc[nH]c2c(=O)[nH]1 [guanine]
- EC50 for xpt-G15 double relative to single xpt-G17 (times lower) (xpt-G15 double cassette; xpt-G15 double vs xpt-G17): 5 times
- EC50 (xpt-G15 double cassette; xpt-G15 double, luciferase): 43 µM
- EC50 [3]: 206 µM

Molecule: DHFR_G17: luciferase construct containing xpt-G17 regulatory cassette (SEQ ID NO: 15) (chain 1 GTAGAAGGTAATGTAT; chain 2 CTACATTACGCAC; chemistry not fully specified)
- induced luciferase level as percent of Con1 (maximal expression) ([4]; guanine treatment (500 μM), HEK 293 cells): about 65%
- fold induction of luciferase expression [5]: more than 500 fold

Molecule: DHFR_Theo13: theophylline aptamer cassette, 8 bp stem (chain 1 TTCAGTAGAAGGTAATGTGA; chain 2 GCACATTACGCACCAT; chemistry not fully specified)
- luciferase expression with / without theophylline (in words) [2]: luciferase expression is suppressed in the absence of theophylline
- luciferase level as percent of Con1 control vector ([2]; in the presence of theophylline (3 mM)): about 56%

B1: xpt-G17: intron-exon-intron cassette containing the xpt-G17 guanine riboswitch, SEQ ID NO: 15, inserted in various target genes (nucleic acid)
DNA: GTGAGTCTATGGGACCCTTGATGTTTTCTTTCCCCTTCTTTTCTATGGTTAAGTTCATGTCATAGGAAGGGGAGAAGTAACAGGGTACACATATTGACCAAATCAGGGTAATTTTGCATTTGTAATTTTAAAAAATGCTTTCTTCTTTTAATATACTTTTTTGTTTATCTTATTTCTAATACTTTCCCTAATCTCTTTCTTTCAGGGCAATAATGATACAATGTATCATGCCGAGTAACGCTGTTTCTCTAACTTGTAGGAATGAATTCAGATATTTCCAGAGAATGAAAAAAAAATCTTCAGTAGAAGGTAATGTATAATCGCGTGGATATGGCACGCAAGTTTCTACCGGGCACCGTAAATGTCCGACTACATTACGCACCATTCTAAAGAATAACAGTGATAATTTCTGGGTTAAGGCAATAGCAATATTTCTGCATATAAATATTTCTGCATATAAATTGTAACTGATGTAAGAGGTTTCATATTGCTAATAGCAGCTACAATCCAGCTACCATTCTGCTTTTATTTTATGGTTGGGATAAGGCTGGATTATTCTGAGTCCAAGCTAGGCCCTTTTGCTAATCATGTTCATACCTCTTATCTTCCTCCCACAG
modifications: xpt-G17 riboswitch
- induced antibody expression as percent of control construct containing the Con 1 intron sequences [6]: about 40%
- time after guanine treatment at which fluorescence was detected [7]: 6 h

B2: Camk2d-e16: DHFR-G17 vector with mouse calcium/calmodulin-dependent protein kinase II delta exon 16 in place of DHFR exon; SEQ ID NO: 59 (nucleic acid)
DNA: GAGTAACGCTGTTTCTCTAACTTGTAGTGAGCCCCAAACTACTGTAATCCACAACCCTGACGGAAACAAGGTAATGT
- regulation of luciferase expression by guanine (in words) ([4]; listed as CaMKIId-e16): equivalent fold induction to the DHFR exon with SRp40 activating mutation (mtDHFR)
- regulation of luciferase expression by guanine (in words) ([4]; listed as CamkIId-e16): nearly equivalent fold induction compared to DHFR-xpt-G17
